Reference: PubChem BioAssay AID1963837 (Molecular Pharmacology Branch, DTP, NCI, 2024)

Tested on: 843126-344-R-J1-PDC complex spheroid viability
Assay: Anticancer human tumor 843126-344-R-J1-PDC patient-derived melanoma cell line growth inhibition [POLQ]
Conditions: for IC50: curve of first compound; for viability, T/C: stronger effect = lower value
Method in brief: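 Complex spheroid viability model combining PDC tumour cells with endothelial (HUVEC) and MSC stromal cells. Novobiocin, ART-558 or RP6685 were tested singly and in combination with standard and investigational anticancer drugs. Each was titrated in half-log steps from near clinical Cmax, or from 10 microM where Cmax was unknown.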

[1] = second compound 0.0316 µM, first compound 0.0316 µM
[2] = second compound 0.0316 µM, first compound 0.1 µM
[3] = second compound 0.0316 µM, first compound 0.316 µM
[4] = second compound 0.0316 µM, first compound 1 µM
[5] = second compound 0.0316 µM, first compound 3.16 µM
[6] = second compound 0.0316 µM, first compound 10 µM
[7] = second compound 0.1 µM, first compound 0.0316 µM
[8] = second compound 0.1 µM, first compound 0.1 µM
[9] = second compound 0.1 µM, first compound 0.316 µM
[10] = second compound 0.1 µM, first compound 1 µM
[11] = second compound 0.1 µM, first compound 3.16 µM
[12] = second compound 0.1 µM, first compound 10 µM
[13] = second compound 0.316 µM, first compound 0.0316 µM
[14] = second compound 0.316 µM, first compound 0.1 µM
[15] = second compound 0.316 µM, first compound 0.316 µM
[16] = second compound 0.316 µM, first compound 1 µM
[17] = second compound 0.316 µM, first compound 3.16 µM
[18] = second compound 0.316 µM, first compound 10 µM
[19] = second compound 1 µM, first compound 0.0316 µM
[20] = second compound 1 µM, first compound 0.1 µM
[21] = second compound 1 µM, first compound 0.316 µM
[22] = second compound 1 µM, first compound 1 µM
[23] = second compound 1 µM, first compound 3.16 µM
[24] = second compound 1 µM, first compound 10 µM
[25] = second compound 3.16 µM, first compound 0.0316 µM
[26] = second compound 3.16 µM, first compound 0.1 µM
[27] = second compound 3.16 µM, first compound 0.316 µM
[28] = second compound 3.16 µM, first compound 1 µM
[29] = second compound 3.16 µM, first compound 3.16 µM
[30] = second compound 3.16 µM, first compound 10 µM
[31] = second compound 10 µM, first compound 0.0316 µM
[32] = second compound 10 µM, first compound 0.1 µM
[33] = second compound 10 µM, first compound 0.316 µM
[34] = second compound 10 µM, first compound 1 µM
[35] = second compound 10 µM, first compound 3.16 µM
[36] = second compound 10 µM, first compound 10 µM
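For viability, T/C in this document: spheroids exposed to drugs for seven days before readout.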

O=C(c1cc(Cc2n[nH]c(=O)c3ccccc23)ccc1F)N1CCN(C(=O)C2CC2)CC1 + COC1C(OC(N)=O)C(O)C(Oc2ccc3c(O)c(NC(=O)c4ccc(O)c(CC=C(C)C)c4)c(=O)oc3c2C)OC1(C)C
IC50 (second compound 0.0316 µM): > 10 µM | IC50 (second compound 0.1 µM): > 10 µM | IC50 (second compound 0.316 µM): > 10 µM | IC50 (second compound 1 µM): > 10 µM | IC50 (second compound 3.16 µM): > 10 µM | IC50 (second compound 10 µM): > 10 µM | viability, T/C [1]: 81.4% | viability, T/C [2]: 94.9% | viability, T/C [3]: 76.9% | viability, T/C [4]: 82.5% | viability, T/C [5]: 80.7% | viability, T/C [6]: 63.8% | viability, T/C [7]: 76.2% | viability, T/C [8]: 98.7% | viability, T/C [9]: 90.2% | viability, T/C [10]: 71.9% | viability, T/C [11]: 80.7% | viability, T/C [12]: 61.6% | viability, T/C [13]: 91.8% | viability, T/C [14]: 71.1% | viability, T/C [15]: 97.9% | viability, T/C [16]: 81.5% | viability, T/C [17]: 80.7% | viability, T/C [18]: 73.5% | viability, T/C [19]: 83.3% | viability, T/C [20]: 85% | viability, T/C [21]: 92.8% | viability, T/C [22]: 92.3% | viability, T/C [23]: 100% | viability, T/C [24]: 63.6% | viability, T/C [25]: 71.1% | viability, T/C [26]: 81.7% | viability, T/C [27]: 106% | viability, T/C [28]: 76.5% | viability, T/C [29]: 83.5% | viability, T/C [30]: 66.1% | viability, T/C [31]: 91% | viability, T/C [32]: 72% | viability, T/C [33]: 96.1% | viability, T/C [34]: 80.6% | viability, T/C [35]: 80.6% | viability, T/C [36]: 61%

COc1cc2cc(C(=O)CCC(=O)O)sc2cc1OC + COC1C(OC(N)=O)C(O)C(Oc2ccc3c(O)c(NC(=O)c4ccc(O)c(CC=C(C)C)c4)c(=O)oc3c2C)OC1(C)C
IC50 (second compound 0.0316 µM): > 10 µM | IC50 (second compound 0.1 µM): > 10 µM | IC50 (second compound 0.316 µM): > 10 µM | IC50 (second compound 1 µM): > 10 µM | IC50 (second compound 3.16 µM): > 10 µM | IC50 (second compound 10 µM): > 10 µM | viability, T/C [1]: 93.2% | viability, T/C [2]: 82.8% | viability, T/C [3]: 99.1% | viability, T/C [4]: 89.6% | viability, T/C [5]: 94.1% | viability, T/C [6]: 87.2% | viability, T/C [7]: 97.5% | viability, T/C [8]: 112% | viability, T/C [9]: 103% | viability, T/C [10]: 91% | viability, T/C [11]: 108% | viability, T/C [12]: 94.4% | viability, T/C [13]: 91.8% | viability, T/C [14]: 104% | viability, T/C [15]: 121% | viability, T/C [16]: 117% | viability, T/C [17]: 89% | viability, T/C [18]: 84.4% | viability, T/C [19]: 96.1% | viability, T/C [20]: 92.7% | viability, T/C [21]: 87.3% | viability, T/C [22]: 85.6% | viability, T/C [23]: 96% | viability, T/C [24]: 87.2% | viability, T/C [25]: 97.3% | viability, T/C [26]: 93.5% | viability, T/C [27]: 81.4% | viability, T/C [28]: 108% | viability, T/C [29]: 97.7% | viability, T/C [30]: 109% | viability, T/C [31]: 98.8% | viability, T/C [32]: 92.7% | viability, T/C [33]: 97.8% | viability, T/C [34]: 110% | viability, T/C [35]: 107% | viability, T/C [36]: 90.9%

COc1ccc([C@@H](O)c2cc(-c3ncnc4cc(N5CCOCC5)ccc34)c(F)cc2Cl)nn1 + Nc1ccc(C#CCN(C(=O)Cc2ncc(C(F)(F)F)cc2C(F)(F)F)c2ccc(F)cc2)nn1
IC50 (second compound 0.0316 µM): > 10 µM | IC50 (second compound 0.1 µM): > 10 µM | IC50 (second compound 0.316 µM): > 10 µM | IC50 (second compound 1 µM): > 10 µM | IC50 (second compound 3.16 µM): > 10 µM | IC50 (second compound 10 µM): > 10 µM | viability, T/C [1]: 95.5% | viability, T/C [2]: 94.9% | viability, T/C [3]: 87.5% | viability, T/C [4]: 87.9% | viability, T/C [5]: 80.9% | viability, T/C [6]: 62.9% | viability, T/C [7]: 95.7% | viability, T/C [8]: 95.8% | viability, T/C [9]: 103% | viability, T/C [10]: 82.9% | viability, T/C [11]: 96% | viability, T/C [12]: 68.1% | viability, T/C [13]: 86% | viability, T/C [14]: 90.3% | viability, T/C [15]: 87% | viability, T/C [16]: 85.1% | viability, T/C [17]: 79.5% | viability, T/C [18]: 80.7% | viability, T/C [19]: 88.1% | viability, T/C [20]: 102% | viability, T/C [21]: 91.8% | viability, T/C [22]: 88.5% | viability, T/C [23]: 74.5% | viability, T/C [24]: 64% | viability, T/C [25]: 100% | viability, T/C [26]: 99.3% | viability, T/C [27]: 92% | viability, T/C [28]: 73.6% | viability, T/C [29]: 77.8% | viability, T/C [30]: 64.6% | viability, T/C [31]: 80.2% | viability, T/C [32]: 94.8% | viability, T/C [33]: 85.4% | viability, T/C [34]: 82.7% | viability, T/C [35]: 78.2% | viability, T/C [36]: 62.6%

O=C(Nc1ccc(O)c(NS(=O)(=O)c2ccc(F)cc2)c1)c1ccc(-c2ccccc2)cc1 + Cc1cccc(N(C)C(=O)C2C(O)CCN2c2nc(C)cc(C(F)(F)F)c2C#N)c1
IC50 (second compound 0.0316 µM): > 10 µM | IC50 (second compound 0.1 µM): > 10 µM | IC50 (second compound 0.316 µM): > 10 µM | IC50 (second compound 1 µM): > 10 µM | IC50 (second compound 3.16 µM): > 10 µM | IC50 (second compound 10 µM): > 10 µM | viability, T/C [1]: 90% | viability, T/C [2]: 95.2% | viability, T/C [3]: 93.6% | viability, T/C [4]: 90.3% | viability, T/C [5]: 99.6% | viability, T/C [6]: 70.8% | viability, T/C [7]: 98.2% | viability, T/C [8]: 94.5% | viability, T/C [9]: 84.1% | viability, T/C [10]: 83.6% | viability, T/C [11]: 96.5% | viability, T/C [12]: 75% | viability, T/C [13]: 86.4% | viability, T/C [14]: 88.2% | viability, T/C [15]: 103% | viability, T/C [16]: 99.2% | viability, T/C [17]: 84.8% | viability, T/C [18]: 70.2% | viability, T/C [19]: 95.7% | viability, T/C [20]: 88.1% | viability, T/C [21]: 96.6% | viability, T/C [22]: 99.9% | viability, T/C [23]: 92.4% | viability, T/C [24]: 72.6% | viability, T/C [25]: 97.5% | viability, T/C [26]: 97.7% | viability, T/C [27]: 89% | viability, T/C [28]: 90.6% | viability, T/C [29]: 84.6% | viability, T/C [30]: 69% | viability, T/C [31]: 92.2% | viability, T/C [32]: 87.4% | viability, T/C [33]: 89.2% | viability, T/C [34]: 85.5% | viability, T/C [35]: 93.5% | viability, T/C [36]: 62.5%
